Common to all, as to assay: NCI-60 cell line screen, 48 h
In test [1] the test system is TK-10.
The test system of test [2] is BT-549.
In test [3] the test system is SNB-19.
Test [4] relates to Malme-3M.
Test [5] relates to OVCAR-3.
Test [6] relates to EKVX.

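A five-concentration, 48-hour dose response in 96-well plates underlies each endpoint, interpolated linearly between surrounding concentrations. GI50 is the concentration that inhibits growth by half.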 The source made the active and inactive calls. Cut-off read from the data, not from the text of the source: active = GI50 up to about 1.1 µM and inactive = higher.

As to `C=C1C(=O)O[C@@H]2C=C(C)C3=CC(=O)[C@](C)(C[C@H](OC(=O)/C(C)=C\C)[C@@H]12)O3`, the GI50 in test [1] is 826 nM (active); in test [2], 493 nM (active); in test [3] it was 8470 nM (inactive); in test [4] it was 1340 nM (inactive); in test [5], 491 nM (active); in test [6], 2770 nM (inactive).

Values taken from ChEMBL document CHEMBL1201862, “PubChem BioAssay data set” (2004).
